Our source for the Ki values is US11034698B2, “Pyrazolo[ 1,5a]pyrimidine derivatives as IRAK4 modulators” (priority 2017, dated 2021).

Where a name gives a salt, the structure may show the parent alone.

The target in one assay is human IRAK4 (Homo sapiens (Human), UniProt Q9NWZ3). Briefly: IRAK4 kinase inhibition, Transcreener fluorescence polarization (ADP). The format is biochemical.
human IRAK4, sequence (Q9NWZ3 whole entry): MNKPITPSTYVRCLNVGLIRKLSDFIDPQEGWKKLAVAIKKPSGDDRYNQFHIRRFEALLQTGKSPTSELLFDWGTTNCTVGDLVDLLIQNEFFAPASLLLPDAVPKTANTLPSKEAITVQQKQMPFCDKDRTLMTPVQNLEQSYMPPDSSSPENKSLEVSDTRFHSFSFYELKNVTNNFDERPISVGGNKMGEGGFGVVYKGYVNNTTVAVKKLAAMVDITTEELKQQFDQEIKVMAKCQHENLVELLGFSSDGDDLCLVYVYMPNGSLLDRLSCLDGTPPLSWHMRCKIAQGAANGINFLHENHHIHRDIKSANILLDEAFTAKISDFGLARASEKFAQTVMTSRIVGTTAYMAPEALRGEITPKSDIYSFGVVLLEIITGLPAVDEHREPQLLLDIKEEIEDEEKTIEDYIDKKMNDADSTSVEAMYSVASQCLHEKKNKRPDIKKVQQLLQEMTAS
Settings: not given
In a few lines:
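The enzyme was full-length human IRAK4 with an N-terminal His6 tag, expressed in insect cells. Kinase activity was read as ADP product by Transcreener fluorescence polarization.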
A general note: In fluorescence polarisation assays a small probe gives low polarisation when free and higher when bound to something large.
In general, Ki refers to a measure of affinity in units of concentration, obtained from inhibition or displacement. `C[C@]1(CCC#N)COc2cc(N3CCOCC3)c(NC(=O)c3cnn4cccnc34)cc2C1` (single isomer, unassigned) [Example 59] yielded a Ki of 30 nM.
The same measure, in the same setting: the value for `CC1(C)Cc2cc(NC(=O)c3cnn4cccnc34)c(OC[C@H]3Cc4ccccc4[C@@H]3N)cc2O1` (single isomer, unassigned) [Example 28] was 260 nM; that for `CN(C)c1cc2c(cc1NC(=O)c1cnn3cccnc13)CC(C)(C)[C@@H]2O` (single isomer, unassigned) [Example 157] was 310 nM.

Staying with this assay, now noted: recombinant full-length His6-IRAK4 1.25 nM; 125 uM ATP; 125 uM peptide; 90 min; ATP Km 642 uM; read-out: IRAK4 Ki.
In the case of `Cc1ncsc1CN1CCN(c2cc3c(cc2NC(=O)c2cnn4cccnc24)CC(C)(C)O3)CC1` [Example 11, N-(2,2-Dimethyl-6-(4-((4-methylthiazol-5-yl)methyl)piperazin-1-yl)-2,3-dihydrobenzofuran-5-yl)pyrazolo[1,5-a]pyrimidine-3-carboxamide], the Ki turned out to be 4.6 nM.
The same measure, in the same setting: the same measure for `CO[C@H]1C[C@@H]2CN(c3cc4c(cc3NC(=O)c3cnn5cccnc35)CN(C[C@@H](F)C(C)(C)O)C4=O)CCN2C1` [Example 108, N-(2-((R)-2-Fluoro-3-hydroxy-3-methylbutyl)-6-((7S,8aR)-7-methoxyhexahydropyrrolo[1,2-a]pyrazin-2(1H)-yl)-1-oxoisoindolin-5-yl)pyrazolo[1,5-a]pyrimidine-3-carboxamide]: 1.3 nM; for `CC(C)N1Cc2cc(NC(=O)c3cnn4cccnc34)c(N(C)C)c(CO)c2C1=O` [Example 151, N-(6-(Dimethylamino)-7-(hydroxymethyl)-2-isopropyl-1-oxoisoindolin-5-yl)pyrazolo[1,5-a]pyrimidine-3-carboxamide]: 8.2 nM; for `CC1(C)Cc2cc(NC(=O)c3cnn4cccnc34)c(N3CCN(CCN)CC3)cc2O1` [Example 1, N-[6-[4-(2-aminoethyl)piperazin-1-yl]-2,2-dimethyl-3H-benzofuran-5-yl]pyrazolo[1,5-a]pyrimidine-3-carboxamide]: 7.4 nM.
Still for that read-out and setting: the value for `CC(C)(O)[C@H](F)CN1Cc2cc(NC(=O)c3cnn4cccnc34)c(O[C@H]3CC[C@@H](O)C3)cc2C1=O` [Example 66, N-(2-((R)-2-Fluoro-3-hydroxy-3-methylbutyl)-6-(((1S,3R)-3-hydroxycyclopentyl)oxy)-1-oxoisoindolin-5-yl)pyrazolo[1,5-a]pyrimidine-3-carboxamide] was 0.67 nM; that for `CC(C)(O)c1cc2c(cc1NC(=O)c1cnn3cccnc13)CN(C[C@@H](F)C(C)(C)O)C2=O` [Example 148, (R)—N-(2-(2-Fluoro-3-hydroxy-3-methylbutyl)-6-(2-hydroxypropan-2-yl)-1-oxoisoindolin-5-yl)pyrazolo[1,5-a]pyrimidine-3-carboxamide] was 16 nM.
On the same count and under the same terms, the same measure for `CCc1oc(=O)[nH]c1CN1CCN(c2cc3c(cc2NC(=O)c2cnn4cccnc24)CC(C)(C)O3)CC1` [Example 15, N-(6-(4-((5-Ethyl-2-oxo-2,3-dihydrooxazol-4-yl)methyl)piperazin-1-yl)-2,2-dimethyl-2,3-dihydrobenzofuran-5-yl)pyrazolo[1,5-a]pyrimidine-3-carboxamide]: 9.4 nM; for `Cc1nc[nH]c1CN1CCN(c2cc3c(cc2NC(=O)c2cnn4cccnc24)CC(C)(C)O3)CC1` [Example 8, N-(2,2-Dimethyl-6-(4-((4-methyl-1H-imidazol-5-yl)methyl)piperazin-1-yl)-2,3-dihvdrobenzofuran-5-yl)pyrazolo[1,5-a]pyrimidine-3-carboxamide]: 3.8 nM.
For `CC1(C)Cc2cc(NC(=O)c3cnn4cccnc34)c(OC[C@@H]3Cc4ccccc4[C@H]3N)cc2O1` [Example 26, N-[6-[[(1S,2R)-1-Aminoindan-2-yl]methoxy]-2,2-dimethyl-3H-benzofuran-5-yl]pyrazolo[1,5-a]pyrimidine-3-carboxamide], the inhibition constant Ki worked out at 280 nM.
On the same count and under the same terms, the value for `CC1(C)Cc2cc(NC(=O)c3cnn4cccnc34)c(N3CCN(C4COC4)CC3)cc2O1` [Example 13, N-(2,2-Dimethyl-6-(4-(oxetan-3-yl)piperazin-1-yl)-2,3-dihydrobenzofuran-5-yl)pyrazolo[1,5-a]pyrimidine-3-carboxamide] was 8.1 nM; that for `CC(C)(O)[C@H](F)CN1Cc2cc(NC(=O)c3cnn4cccnc34)c(N3CCN(CC(F)(F)F)CC3)cc2C1=O` [Example 109, (R)-N-(2-(2-Fluoro-3-hydroxy-3-methylbutyl)-1-oxo-6-(4-(2,2,2-trifluoroethyl)piperazin-1-yl)isoindolin-5-yl)pyrazolo[1,5-a]pyrimidine-3-carboxamide] was 2.6 nM.
For the compound `COc1cc2c(cc1NC(=O)c1cnn3ccc(N(C)C)nc13)CC(C)(C)O2` [Example 44, 5-(Dimethylamino)-N-(6-methoxy-2,2-dimethyl-2,3-dihydrobenzofuran-5-yl)pyrazolo[1,5-a]pyrimidine-3-carboxamide], the Ki was 220 nM.
Still for that read-out and setting: the same measure for `O=C(Nc1cc2c(cc1N1CCOCC1)OCCS2)c1cnn2cccnc12` [Example 153, N-(7-Morpholino-2,3-dihydro-1,4-benzoxathiin-6-yl)pyrazolo[1,5-a]pyrimidine-3-carboxamide]: 280 nM.
In the case of `COc1cc2c(cc1NC(=O)c1cnn3ccc(N(C)C4CC4)nc13)CC(C)(C)O2` [Example 38, 5-(Cyclopropyl(methyl)amino)-N-(6-methoxy-2,2-dimethyl-2,3-dihvdrobenzofuran-5-yl)pyrazolo[1,5-a]pyrimidine-3-carboxamide], the Ki was 180 nM.
Take `C[C@H]1C[C@@H]2CN(c3cc4c(cc3NC(=O)c3cnn5cccnc35)CN(C[C@@H](F)C(C)(C)O)C4=O)CCN2C1` [Example 110, N-[6-[(7S,8aR)-7-Methyl-3,4,6,7,8,8a-hexahydro-1H-pyrrolo[1,2-a]pyrazin-2-yl]-2-[(2R)-2-fluoro-3-hydroxy-3-methyl-butyl]-1-oxo-isoindolin-5-yl]pyrazolo[1,5-a]pyrimidine-3-carboxamide]: the Ki was determined as 7.5 nM.
On the same count and under the same terms, the value for `CN(C)c1cc2c(cc1NC(=O)c1cnn3cccnc13)CC(C)(C)[C@H]2O` [Example 156, N-[(1R)-6-(Dimethylamino)-1-hydroxy-2,2-dimethyl-indan-5-yl]pyrazolo[1,5-a]pyrimidine-3-carboxamide] was 16 nM; that for `CCOc1cc2c(cc1NC(=O)c1cnn3cccnc13)CN(C[C@@H](F)C(C)(C)O)C2=O` [Example 82, (R)-N-(6-Ethoxy-2-(2-fluoro-3-hydroxy-3-methylbutyl)-1-oxoisoindolin-5-yl)pyrazolo[1,5-a]pyrimidine-3-carboxamide] was 0.37 nM.
On the same count and under the same terms, the same measure for `CO[C@@H]1C[C@@H]2CN(c3cc4c(cc3NC(=O)c3cnn5cccnc35)CN(C[C@@H](F)C(C)(C)O)C4=O)CCN2C1` [Example 107, N-(2-((R)-2-Fluoro-3-hydroxy-3-methylbutyl)-6-((7R,8aR)-7-methoxyhexahydropyrrolo[1,2-a]pyrazin-2(1H)-yl)-1-oxoisoindolin-5-yl)pyrazolo[1,5-a]pyrimidine-3-carboxamide]: 6.5 nM; for `Cc1nocc1CN1CCN(c2cc3c(cc2NC(=O)c2cnn4cccnc24)CC(C)(C)O3)CC1` [Example 14, N-(2,2-Dimethyl-6-(4-((3-methylisoxazol-4-yl)methyl)piperazin-1-yl)-2,3-dihydrobenzofuran-5-yl)pyrazolo[1,5-a]pyrimidine-3-carboxamide hydrochloride]: 5.2 nM.
